We go through 29 molecules from patent US7910740B2, “Modulators of amyloid beta” (Hoffmann-La Roche Inc., priority 2007, dated 2011).

A word on the IC50: it is the concentration needed to halve the response being measured.

This test concerns γ-secretase. The experiment in a line: Cellular γ-secretase assay (inhibition of Aβ42 secretion). The following applies: human neuroglioma H4 cells overexpressing human APP, incubation for 22 hrs, read-out: IC50 in vitro. It is filed as cell-based. The method, then: Cellular γ-Secretase Assay
Human neuroglioma H4 cells overexpressing human APP were plated at 30,000 cells/well/200 μl in 96-well plates in IMDM media containing 10% FCS, 0.2 mg/l Hygromycin B and incubated for 2 h at 37° C., 5% CO2 prior to adding test compounds.
Compounds for testing were dissolved in 100% Me2SO yielding in a 10 mM stock solution.
Typically 12 μl of these solutions were further diluted in 1000 μl of IMDM media (w/o FCS,). Sub sequential 1:1 dilutions gave a ten point dose response curve. 100 μl of each dilution was added to the cells in 96-well plates. Appropriate controls using vehicle only and reference compound were applied to this assay. The final concentration of Me2SO was 0.4%.
After incubation for 22 hrs at 37° C., 5% CO2, 50 μl supernatant was transferred into round-bottom 96-well polypropylene plates for detection of Aβ42. 50 μl assay buffer (50 mM Tris/Cl, pH 7.4, 60 mM NaCl, 0.5% BSA, 1% TWEEN 20) was added to the wells followed by the addition of 100 μl of detection antibody (ruthenylated BAP15 0.0625 μg/ml in assay buffer). 50 μl of a premix of capture antibody (biotinylated 6E10 antibody, 1 μg/ml) and Steptavidin-coated magnetic beads (Dynal M-280, 0.125 mg/ml) were preincubated for 1 hr at room temperature before adding the assay plates. Assay plates were incubated on a shaker for 3 hrs at room temperature and finally read in the Bioveris M8 Analyser according to the manufacturer's instructions (Bioveris).
IC50 values for inhibition of Aβ42 secretion were calculated by nonlinear regression fit analysis using XLfit 4.0 software (IDBS).
For the molecule `COc1cc(Nc2nc([C@H](CC(C)C)NS(=O)(=O)c3ccc(F)cc3)cs2)ccc1-n1cnc(C)c1` [Example 39, 4-Fluoro-N—((S)-1-{2-[3-methoxy-4-(4-methyl-imidazol-1-yl)-phenylamino]-thiazol-4-yl}-3-methyl-butyl)-benzene sulfonamide], the IC50 came to 0.91 µM.
For `COc1cc(Nc2nc(C(C)(C)c3ccc(Cl)cc3)cs2)ccc1-n1cnc(C)c1` [Example 77, {4-[1-(4-Chloro-phenyl)-1-methyl-ethyl]-thiazol-2-yl}-[3-methoxy-4-(4-methyl-imidazol-1-yl)-phenyl]-amine], the IC50 was determined as 0.14 µM.
The same measure for `COc1ccc(Br)cc1-c1csc(Nc2ccc(-n3ccnc3)c(OC)c2)n1` [Example 22, [4-(5-Bromo-2-methoxy-phenyl)-thiazol-2-yl]-(4-imidazol-1-yl-3-methoxy-phenyl)-amine]: 0.79 µM.
Take `COc1cc(Nc2nc(C)c(Cc3ccc(Cl)c(C(F)(F)F)c3)s2)ccc1-n1cnc(C)c1` [Example 68, [5-(4-Chloro-3-trifluoromethyl-benzyl)-4-methyl-thiazol-2-yl]-[3-methoxy-4-(4-methyl-imidazol-1-yl)-phenyl]-amine]: the IC50 was 0.89 µM.
Turning to `COc1cc(Nc2nc(C)c(Cc3cccc(C(F)(F)F)c3)s2)ccc1-n1cnc(C)c1` [Example 9, [3-Methoxy-4-(4-methyl-imidazol-1-yl)-phenyl]-[4-methyl-5-(3-trifluoromethyl-benzyl)-thiazol-2-yl]-amine], the IC50 was 0.92 µM.
Take `COc1cc(Nc2nc(C)c(Cc3ccc(Cl)c(Cl)c3)s2)ccc1-n1cnc(C)c1` [Example 71, [5-(3,4-Dichloro-benzyl)-4-methyl-thiazol-2-yl]-[3-methoxy-4-(4-methyl-imidazol-1-yl)-phenyl]-amine]: the 50% inhibitory concentration (IC50) is 0.28 µM.
The figure for `COc1cc(Nc2nc(C)c(Cc3ccc(C)c(Cl)c3)s2)ccc1-n1cnc(C)c1` [Example 70, [5-(3-Chloro-4-methyl-benzyl)-4-methyl-thiazol-2-yl]-[3-methoxy-4-(4-methyl-imidazol-1-yl)-phenyl]-amine] is 0.71 µM; for `COc1cc(Nc2nc([C@H](Cc3ccccc3)NS(=O)(=O)c3ccc(C)cc3)cs2)ccc1-n1cnc(C)c1` [Example 55, N—((S)-1-{2-[3-Methoxy-4-(4-methyl-imidazol-1-yl)-phenylamino]-thiazol-4-yl}-2-phenyl-ethyl)-4-methyl-benzenesulfonamide] it is 0.8 µM; for `COc1cc(Nc2ncc(C(O)c3ccccc3)s2)ccc1-n1cnc(C)c1` (centres unmarked) [Example 62, {2-[3-Methoxy-4-(4-methyl-imidazol-1-yl)-phenylamino]-thiazol-5-yl}-phenyl-methanol] it is 0.57 µM.
The same measure for `COc1cc(Nc2nc([C@H](CC(C)C)NS(C)(=O)=O)cs2)ccc1-n1cnc(C)c1` [Example 41, N—((S)-1-{2-[3-Methoxy-4-(4-methyl-imidazol-1-yl)-phenylamino]-thiazol-4-yl}-3-methyl-butyl)-methane sulfonamide]: 0.9 µM.
The same measure for `COc1cc(Nc2nc([C@H](CC(C)C)NC(=O)CC(F)(F)F)cs2)ccc1-n1cnc(C)c1` [Example 38, 3,3,3-Trifluoro-N—((S)-1-{2-[3-methoxy-4-(4-methyl-imidazol-1-yl)-phenylamino]-thiazol-4-yl}-3-methyl-butyl)-propionamide]: 0.29 µM; for `Cc1cn(-c2ccc(Nc3nc(C)c(Cc4cccc(Cl)c4)s3)cc2C#N)cn1` [Example 4, 5-[5-(3-Chloro-benzyl)-4-methyl-thiazol-2-ylamino]-2-(4-methyl-imidazol-1-yl)-benzonitrile]: 0.75 µM; for `COc1ccc(Br)cc1-c1csc(Nc2ccc(-n3cnc(C)c3)cc2)n1` [Example 21, [4-(5-Bromo-2-methoxy-phenyl)-thiazol-2-yl]-[4-(4-methyl-imidazol-1-yl)-phenyl]-amine]: 0.88 µM.
Take `COc1cc(Nc2nc(CC(=O)Nc3ccc(F)cc3)cs2)ccc1-n1cnc(C)c1` [Example 29, N-(4-Fluoro-phenyl)-2-{2-[3-methoxy-4-(4-methyl-imidazol-1-yl)-phenylamino]-thiazol-4-yl}-acetamide]: the 50% inhibitory concentration (IC50) worked out at 0.95 µM.
Regarding `COc1cc(Nc2nc(C(C)(C)c3cc(F)c(F)c(F)c3)cs2)ccc1-n1cnc(C)c1` [Example 78, [3-Methoxy-4-(4-methyl-imidazol-1-yl)-phenyl]-{4-[1-methyl-1-(3,4,5-trifluoro-phenyl)-ethyl]-thiazol-2-yl}-amine], the half-maximal inhibitory concentration (IC50) worked out at 0.68 µM.
Consider `COc1cc(Nc2nc([C@H](CC(C)C)NS(=O)(=O)Cc3ccccc3)cs2)ccc1-n1cnc(C)c1` [Example 40, N—((S)-1-{2-[3-Methoxy-4-(4-methyl-imidazol-1-yl)-phenylamino]-thiazol-4-yl}-3-methyl-butyl)-C-phenyl-methanesulfonamide], for which the IC50 was 0.55 µM.
The figure for `COc1cc(Nc2nc(C)c(Cc3ccc(C#N)cc3)s2)ccc1-n1cnc(C)c1` [Example 6, 4-{2-[3-Methoxy-4-(4-methyl-imidazol-1-yl)-phenylamino]-4-methyl-thiazol-5-ylmethyl}-benzonitrile] is 0.87 µM.
Turning to `COc1cc(Nc2nc(C)c(Cc3ccc(C(C)(C)C)cc3)s2)ccc1-n1cnc(C)c1` [Example 8, [5-(4-tert-Butyl-benzyl)-4-methyl-thiazol-2-yl]-[3-methoxy-4-(4-methyl-imidazol-1-yl)-phenyl]-amine], the 50% inhibitory concentration (IC50) amounted to 0.57 µM.
The same measure for `COc1cc(Nc2ncc(C(O)c3ccc(Cl)cc3)s2)ccc1-n1cnc(C)c1` (centres unmarked) [Example 76, (4-Chloro-phenyl)-{2-[3-methoxy-4-(4-methyl-imidazol-1-yl)-phenylamino]-thiazol-5-yl}-methanol]: 0.34 µM; for `COc1cc(Nc2nc(C)c(Cc3cccc(Cl)c3)s2)ccc1-n1cnc(C)c1` [Example 1, [5-(3-Chloro-benzyl)-4-methyl-thiazol-2-yl]-[3-methoxy-4-(4-methyl-imidazol-1-yl)-phenyl]-amine]: 0.21 µM; for `COc1cc(Nc2nc(C)c(Cc3ccccc3Cl)s2)ccc1-n1cnc(C)c1` [Example 7, [5-(2-Chloro-benzyl)-4-methyl-thiazol-2-yl]-[3-methoxy-4-(4-methyl-imidazol-1-yl)-phenyl]-amine]: 0.52 µM.
Turning to `COc1cc(Nc2nc3c(s2)CN(C(=O)OC(C)(C)C)CC3)ccc1-n1cnc(C)c1` [Example 43, 2-[3-Methoxy-4-(4-methyl-imidazol-1-yl)-phenylamino]-6,7-dihydro-4H-thiazolo[5,4-c]pyridine-5-carboxylic acid tert-butyl ester], the IC50 was determined as 0.79 µM.
The figure for `COc1cc(Nc2nc([C@H](CC(C)C)NC(=O)c3ccc(F)cc3)cs2)ccc1-n1cnc(C)c1` [Example 37, 4-Fluoro-N—((S)-1-{2-[3-methoxy-4-(4-methyl-imidazol-1-yl)-phenylamino]-thiazol-4-yl}-3-methyl-butyl)-benzamide] is 0.41 µM; for `COc1cc(Nc2nc([C@H](CC(C)C)NC(=O)Cc3ccc(F)cc3)cs2)ccc1-n1cnc(C)c1` [Example 34, 2-(4-Fluoro-phenyl)-N—((S)-1-{2-[3-methoxy-4-(4-methyl-imidazol-1-yl)-phenylamino]-thiazol-4-yl}-3-methyl-butyl)-acetamide] it is 0.52 µM; for `COc1ccc(Br)cc1-c1csc(Nc2ccc(-n3cnc(C)c3)c(OC)c2)n1` [Example 16, [4-(5-Bromo-2-methoxy-phenyl)-thiazol-2-yl]-[3-methoxy-4-(4-methyl-imidazol-1-yl)-phenyl]-amine] it is 0.9 µM.
The same measure for `COc1cc(Nc2nc([C@H](CC(C)C)NC(=O)OC(C)(C)C)cs2)ccc1-n1cnc(C)c1` [Example 30, ((S)-1-{2-[3-Methoxy-4-(4-methyl-imidazol-1-yl)-phenylamino]-thiazol-4-yl}-3-methyl-butyl)-carbamic acid tert-butyl ester]: 0.39 µM; for `CCOC(=O)c1sc(Nc2ccc(-n3cnc(C)c3)c(OC)c2)nc1C(F)(F)F` [Example 42, 2-[3-Methoxy-4-(4-methyl-imidazol-1-yl)-phenylamino]-4-trifluoromethyl-thiazole-5-carboxylic acid ethyl ester]: 0.64 µM; for `COc1cc(Nc2nc(C)c(Cc3cccc(OC(F)(F)C(F)F)c3)s2)ccc1-n1cnc(C)c1` [Example 69, [3-Methoxy-4-(4-methyl-imidazol-1-yl)-phenyl]-{4-methyl-5-[3-(1,1,2,2-tetrafluoro-ethoxy)-benzyl]-thiazol-2-yl}-amine]: 0.73 µM.
The figure for `COc1cc(Nc2nc(C)c(Cc3ccc(Cl)cc3)s2)ccc1-n1cnc(C)c1` [Example 2, [5-(4-Chloro-benzyl)-4-methyl-thiazol-2-yl]-[3-methoxy-4-(4-methyl-imidazol-1-yl)-phenyl]-amine] is 0.24 µM.
